Drawing on patent US12319655B2, “RAF kinase inhibitors and methods of use thereof” (Deciphera Pharmaceuticals, LLC, priority 2021, dated 2025), this text covers IC50 for 19 compounds.

One assay concerns WM3629 cells. Kind of assay: WM3629 Cell Proliferation Assay (2). Type of assay: cell-based. As for the experimental part:
WM3629 Cell Proliferation Assay (2)
WM3629 cells (#WM3629-01-0001) are obtained from Rockland Immunochemicals Inc (Gilbertsville, PA). Briefly, cells were grown in MCDB 153 medium (Sigma, #M7403, St. Louis, MO) supplemented with 20% Leibovitz's L-15 (ThermoFisher #11415-064, Waltham, MA), 2% heat inactivated fetal bovine serum (ThermoFisher, #A3840001, Waltham, MA), 5 μg/mL Insulin (Bovine Pancreas) (Sigma, #I0516, St. Louis, MO), 1.68 mM Calcium Chloride (Sigma, #C-34006, St. Louis, MO) and 1% Penicillin/Streptomycin/L-Glutamine (ThermoFisher #10378016, Waltham, MA) at 37° C., 5% CO2, and 95% humidity. Cells are expanded until reaching 70-95% confluency at which point they are sub-cultured or harvested for assay use. Using the Beckman Coulter Echo 650, a serial dilution of test compound is dispensed into a 384-well black clear bottom plate in triplicate. One thousand one hundred twenty-five cells are added per well in 50 μL complete growth medium in the 384-well plate. Plates are incubated for 67-72 hours at 37° C., 5% CO2, and 95% humidity. At the end of the incubation, 10 μL of a 440 μM solution of resazurin (Sigma, #199303, St. Louis, MO) in PBS is added to each well of the plate and plates are incubated for an additional 3-6 hours at 37° C., 5% CO2, and 95% humidity. Plates are read on a Synergy2 or equivalent reader (Biotek, Winooski VT) using an excitation of 540 nm and an emission of 600 nm. Data is analyzed using Prism software (GraphPad, San Diego, CA) to calculate IC50 values.

In another assay the test system is WM3928 cells. Kind of assay: WM3928 Cell Proliferation Assay (2). Type of assay: cell-based.
A further assay relates to H2405 cells. Kind of assay: H2405 Cell Proliferation Assay (2). Type of assay: cell-based. The settings on record: Homo sapiens, NCI-H2405.
In assay [1] the target is B-Raf kinase (SEQ. ID NO: 2) (Homo sapiens (Human), UniProt P15056). Nature of the assay: Biochemical Assay for B-Raf (2). The settings on record: Table J, biochemical assay (2); read-out: BRAF (2). Put shortly:
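Coupled pyruvate kinase/lactate dehydrogenase read-out of NADH oxidation at 340 nm, using 2 nM B-Raf, 50 nM MEK and 1 mM ATP in Tris pH 7.5 with 1% DMSO. Absorbance was read hourly for 4 h at 30 °C and rates taken over 2–3 h. IC50 came from a four-parameter sigmoidal fit.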

Chain of B-Raf kinase (SEQ. ID NO: 2) (P15056 416-766): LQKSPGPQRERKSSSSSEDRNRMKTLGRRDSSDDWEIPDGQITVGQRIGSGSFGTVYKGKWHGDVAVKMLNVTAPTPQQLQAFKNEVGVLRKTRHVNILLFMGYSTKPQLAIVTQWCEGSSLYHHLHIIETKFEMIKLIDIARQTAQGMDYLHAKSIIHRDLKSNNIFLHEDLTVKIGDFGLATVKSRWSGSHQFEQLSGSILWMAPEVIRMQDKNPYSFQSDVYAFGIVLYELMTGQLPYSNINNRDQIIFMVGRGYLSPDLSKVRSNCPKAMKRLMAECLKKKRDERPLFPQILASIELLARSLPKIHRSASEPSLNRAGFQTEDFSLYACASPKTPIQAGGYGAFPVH

On to `CNC(=O)c1cc(-c2cc(-c3cc(NC(=O)c4cnnc(C(C)(C)F)c4)ccc3C)ccn2)ccn1` [Example 495], for which the IC50 in the assay on WM3629 cells was at most 100 nM; in the assay on WM3928 cells it was at most 100 nM; with H2405 cells, 100 to 500 nM; in assay [1], at most 100 nM.

Take `Cc1ccc(NC(=O)c2ccnc(C(C)(C)F)c2)cc1-c1cnnc(-c2ccnc(C(N)=O)c2)c1` [Example 486]: the IC50 in the assay on WM3629 cells is at most 100 nM; with WM3928 cells it was 100 to 500 nM; with H2405 cells, 500 to 1000 nM; in assay [1], 100 to 500 nM.

In the case of `CNC(=O)c1cc(-c2cc(-c3cc(NC(=O)c4ccnc(C(C)(C)F)n4)ccc3C)ccn2)ccn1` [Example 494], the IC50 with WM3629 cells was at most 100 nM; in the assay on WM3928 cells it was 500 to 1000 nM; in the assay with H2405 cells, 1000 to 10000 nM; in assay [1] it was 100 to 500 nM.

For `CNC(=O)c1cc(-c2cc(-c3cc(NC(=O)c4ccnc(C(C)(C)F)c4)c(F)cc3C)ccn2)ccn1` [Example 497], the IC50 in the assay with WM3629 cells was at most 100 nM; in the assay with WM3928 cells, 100 to 500 nM; in the assay on H2405 cells it was 100 to 500 nM; in assay [1] it was 100 to 500 nM.

Regarding `Cc1ccc(NC(=O)c2cccc(C(F)(F)F)c2)cc1-c1ccnc(-c2ccnc(NC(=O)C3CC3)c2)c1` [Example 502], the IC50 (with WM3629 cells; in the assay with WM3928 cells; in the assay with H2405 cells; in assay [1]) was at most 100 nM throughout.

As to `CNC(=O)c1cc(-c2cc(-c3cc(NC(=O)c4ccnc(C5(F)CC5)c4)ccc3C)ccn2)ccn1` [Example 487], the IC50 (in the assay on WM3629 cells; in the assay with WM3928 cells; in the assay with H2405 cells; in assay [1]) was at most 100 nM throughout.

Regarding `Cc1ccc(NC(=O)c2cn(C)nc2C(F)(F)F)cc1-c1cncc(-c2ccnc(NC(=O)C3CC3)c2)c1` [Example 500], the IC50 in the assay with WM3629 cells was at most 100 nM; with WM3928 cells, 500 to 1000 nM; in the assay on H2405 cells it was 1000 to 10000 nM; in assay [1] it was at most 100 nM.

Turning to `[2H]C([2H])([2H])NC(=O)c1cc(-c2cc(-c3cc(NC(=O)c4ccnc(C(C)(C)F)c4)ccc3C)cc(C)n2)ccn1` [Example 493], the IC50 in the assay with WM3629 cells was at most 100 nM; in the assay with WM3928 cells it was at most 100 nM; in the assay with H2405 cells, 100 to 500 nM; in assay [1], 100 to 500 nM.

On to `CC(C)(F)c1cc(C(=O)Nc2ccc(F)c(-c3ccnc(-c4ccnc(C(N)=O)c4)c3)c2)ccn1` [Example 491], for which the IC50 was at most 100 nM in the assay with WM3629 cells, 500 to 1000 nM in the assay with WM3928 cells, 100 to 500 nM in the assay on H2405 cells and at most 100 nM in assay [1].

Consider `[2H]C([2H])([2H])NC(=O)c1cc(-c2cc(-c3cc(NC(=O)c4ccnc(C5(F)CC5)c4)ccc3C)cc(C)n2)ccn1` [Example 498], for which the IC50 is at most 100 nM in the assay with WM3629 cells, at most 100 nM with WM3928 cells, 100 to 500 nM in the assay on H2405 cells and 100 to 500 nM in assay [1].

Consider `CNC(=O)c1cc(-c2cc(-c3cc(NC(=O)c4ccnc(C5(F)CC5)c4)ccc3C)cc(C)n2)ccn1` [Example 496], for which the IC50 in the assay on WM3629 cells is at most 100 nM; in the assay on WM3928 cells it was at most 100 nM; in the assay with H2405 cells, 100 to 500 nM; in assay [1], 100 to 500 nM.

For `Cc1ccc(NC(=O)c2ccc(C(F)(F)F)cc2)cc1-c1ccnc(-c2ccnc(NC(=O)C3CC3)c2)c1` [Example 501], the IC50 with WM3629 cells is at most 100 nM; in the assay with WM3928 cells it was 100 to 500 nM; in the assay with H2405 cells it was 100 to 500 nM; in assay [1] it was at most 100 nM.

On to `Cc1ccc(NC(=O)c2ccnc(C(C)(C)F)c2)cc1-c1cc(-c2ccnc(C(N)=O)c2)ncc1F` [Example 490], for which the IC50 was at most 100 nM in the assay on WM3629 cells, 100 to 500 nM in the assay on WM3928 cells, 100 to 500 nM with H2405 cells and 100 to 500 nM in assay [1].

With `Cc1ccc(NC(=O)c2cc(C(F)(F)F)ccc2F)cc1-c1ccnc(-c2ccnc(NC(=O)C3CC3)c2)c1` [Example 503], the IC50 in the assay on WM3629 cells is at most 100 nM; in the assay with WM3928 cells, at most 100 nM; in the assay on H2405 cells, 100 to 500 nM; in assay [1] it was at most 100 nM.

Consider `[2H]C([2H])([2H])NC(=O)c1cc(-c2cc(-c3cc(NC(=O)c4ccnc(C(C)(C)F)c4)ccc3C)ccn2)ccn1` [Example 489], for which the IC50 (with WM3629 cells; with WM3928 cells; in the assay on H2405 cells; in assay [1]) was at most 100 nM each time.

`Cc1ccc(NC(=O)c2ccnc(C(C)(C)F)c2)cc1-c1cc(-c2ccnc(C(N)=O)c2)ncn1` [Example 488]: the IC50 in the assay on WM3629 cells was at most 100 nM; in the assay on WM3928 cells, 100 to 500 nM; with H2405 cells, 100 to 500 nM; in assay [1], at most 100 nM.

As for `CNC(=O)c1cc(-c2cc(-c3cc(NC(=O)c4ccnc(C(C)(C)F)c4)ccc3Cl)ccn2)ccn1` [Example 485], the IC50 is at most 100 nM in the assay on WM3629 cells, at most 100 nM with WM3928 cells, 100 to 500 nM in the assay with H2405 cells and 100 to 500 nM in assay [1].

Turning to `CNC(=O)c1cc(-c2cc(-c3cc(NC(=O)c4ccnc(C(C)(C)F)c4)ncc3C)ccn2)ccn1` [Example 499], the IC50 was at most 100 nM in the assay on WM3629 cells, 100 to 500 nM with WM3928 cells, 100 to 500 nM with H2405 cells and 100 to 500 nM in assay [1].

`CNC(=O)c1cc(-c2cc(-c3cc(NC(=O)c4cnnc(C(C)(F)F)c4)ccc3C)ccn2)ccn1` [Example 492]: the IC50 with WM3629 cells is at most 100 nM; with WM3928 cells, 100 to 500 nM; with H2405 cells, 100 to 500 nM; in assay [1] it was at most 100 nM.
